# Source: patent US11718618B2, “Substituted pyrido[2,1-a]isoquinolines as VMAT2 inhibitors” (priority 2021, dated 2023)
# pKi: −log10 of the molar value.
# Biological target: human VMAT2 (Homo sapiens (Human), UniProt Q05940)
# Experiment: VMAT2 radioligand binding, 3H-dihydrotetrabenazine competition on human platelet homogenate
# Details: 10 nM 3H-dihydrotetrabenazine, human platelet homogenate, 25° C., 90 minutes; read-out: VMAT2 Ki
# Protocol: Examples of techniques for determining the capability of a compound to inhibit VMAT2 are provided below. The procedure was adapted from that described previously (see, e.g., Near, (1986), Mol. Pharmacol. 30: 252-57; Teng, et al., J. Neurochem. 71, 258-65, 1998). Homogenates from human platelets were prepared by homogenization and then washed by centrifugation as described previously (see, e.g., Hoare et al., (2003) Peptides 24:1881-97).
# The human VMAT2 Ki values for the compounds listed in Table 15A and Table 15B were determined using the following procedures. Compound dilution series in DMSO were generated from either powder stocks by hand, or from DMSO stocks using serial dilution on a Vantage (Hamilton), or direct dilution using an Echo 655 (Beckman). In a total volume of 0.145 to 0.150 mL in low-binding 96-well plates (Corning #3605), twelve concentrations of test compound were competed against 10 nM ^3H-dihydrotetrabenezine (American Radiolabeled Chemicals) on human platelet homogenate (30 μg membrane protein per well) in VMAT2 binding buffer (Dulbecco's phosphate buffered saline, 1 mM EDTA, pH 7.4). Following incubation at 25° C. for 90 minutes, bound radioligand was collected by rapid filtration onto either GF/B or GF/C glass fiber filters, pretreated with 0.100 polyethylenimine, using either a Unifilter-96 Harvester (PerkinElmer) or Microlab Star (Hamilton). Following harvesting the filter plates were washed with 0.8 mL VMAT2 binding buffer, and bound radioligand was quantified by scintillation counting using a Topcount NXT or Microplate Counter Microbeta (PerkinElmer).
# human VMAT2, sequence (Q05940 whole entry): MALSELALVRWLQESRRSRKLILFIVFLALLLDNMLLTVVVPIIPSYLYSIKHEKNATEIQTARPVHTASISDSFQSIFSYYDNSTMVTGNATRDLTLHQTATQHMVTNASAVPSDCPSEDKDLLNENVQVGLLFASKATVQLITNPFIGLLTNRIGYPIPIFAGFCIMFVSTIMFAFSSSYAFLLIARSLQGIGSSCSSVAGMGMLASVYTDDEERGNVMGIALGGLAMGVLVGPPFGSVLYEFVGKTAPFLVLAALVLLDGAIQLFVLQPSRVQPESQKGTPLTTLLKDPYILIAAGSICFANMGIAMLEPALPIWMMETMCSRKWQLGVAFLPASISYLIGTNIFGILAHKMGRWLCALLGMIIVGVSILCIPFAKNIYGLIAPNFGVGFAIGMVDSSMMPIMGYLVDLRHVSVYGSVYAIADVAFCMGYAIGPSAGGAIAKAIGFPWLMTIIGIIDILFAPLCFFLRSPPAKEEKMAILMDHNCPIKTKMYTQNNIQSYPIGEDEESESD
row,Structure (SMILES),pKi
1,"COc1cc2c(cc1OCc1ccc(C#N)cn1)CCN1C[C@@H](CC(C)(C)C)[C@H](O)C[C@H]21 [Compound 4-82, 6-({[(2R,3R,11bR)-3-(2,2-dimethylpropyl)-2-hydroxy-10-methoxy-1H,2H,3H,4H,6H,7H,11bH-pyrido[2,1-a]isoquinolin-9-yl]oxy}methyl)pyridine-3-carbonitrile]",6.70
2,"COc1cc2c(cc1OCCOC1COC1)CCN1C[C@@H](CC(C)(C)C)[C@H](O)C[C@H]21 [Compound 4-20, (2R,3R,11bR)-3-(2,2-dimethylpropyl)-10-methoxy-9-[2-(oxetan-3-yloxy)ethoxy]-1H,2H,3H,4H,6H,7H,11bH-pyrido[2,1-a]isoquinolin-2-ol]",6.47
3,"COc1cc2c(cc1OCc1ccc(C(F)(F)F)cc1)CCN1C[C@@H](CC(C)(C)C)[C@H](O)C[C@H]21 [Compound 4-81, (2R,3R,11bR)-3-(2,2-dimethylpropyl)-10-methoxy-9-{[4-(trifluoro-methyl)phenyl]methoxy}-1H,2H,3H,4H,6H,7H,11bH-pyrido[2,1-a]isoquinolin-2-ol]",6.75
4,"COc1cc2c(cc1OCCn1ccnc1)CCN1C[C@@H](CC(C)(C)C)[C@H](O)C[C@H]21 [Compound 4-34, (2R,3R,11bR)-3-(2,2-dimethylpropyl)-9-[2-(1H-imidazol-1-yl)ethoxy]-10-methoxy-1H,2H,3H,4H,6H,7H,11bH-pyrido[2,1-a]isoquinolin-2-ol]",< 5.00
5,"COc1cc2c(cc1OCC(=O)N(C)C)CCN1C[C@@H](CC(C)(C)C)[C@H](O)C[C@H]21 [Compound 4-33, 2-{[(2R,3R,11bR)-3-(2,2-dimethylpropyl)-2-hydroxy-10-methoxy-1H,2H,3H,4H,6H,7H,11bH-pyrido[2,1-a]isoquinolin-9-yl]oxy}-N,N-dimethylacetamide]",< 5.00
6,"COc1cc2c(cc1OCCCS(C)(=O)=O)CCN1C[C@@H](CC(C)(C)C)[C@H](O)C[C@H]21 [Compound 4-85, (2R,3R,11bR)-3-(2,2-dimethylpropyl)-9-(3-methanesulfonylpropoxy)-10-methoxy-1H,2H,3H,4H,6H,7H,11bH-pyrido[2,1-a]isoquinolin-2-ol]",6.56
7,"CCC(O)(CC)COc1cc2c(cc1OC)[C@H]1C[C@@H](O)[C@H](CC(C)(C)C)CN1CC2 [Compound 4-93, (2R,3R,11bR)-3-(2,2-dimethylpropyl)-9-(2-ethyl-2-hydroxybutoxy)-10-methoxy-1H,2H,3H,4H,6H,7H,11bH-pyrido[2,1-a]isoquinolin-2-ol]",6.55
8,"CNC(=O)COc1cc2c(cc1OC)[C@H]1C[C@@H](O)[C@H](CC(C)(C)C)CN1CC2 [Compound 4-35, 2-{[(2R,3R,11bR)-3-(2,2-dimethylpropyl)-2-hydroxy-10-methoxy-1H,2H,3H,4H,6H,7H,11bH-pyrido[2,1-a]isoquinolin-9-yl]oxy}-N-methylacetamide]",< 5.00
9,"COc1cc2c(cc1OC[C@@H]1CCO1)CCN1C[C@@H](CC(C)(C)C)[C@H](O)C[C@H]21 [Compound 4-21, (2R,3R,11bR)-3-(2,2-dimethylpropyl)-10-methoxy-9-[(2S)-oxetan-2-ylmethoxy]-1H,2H,3H,4H,6H,7H,11bH-pyrido[2,1-a]isoquinolin-2-ol]",7.55
10,"COc1cc2c(cc1OCC(F)(F)F)CCN1C[C@H](CC(C)(C)C)[C@H](O)C[C@@H]21 [Compound 4-4, (2R,3S,11bS)-3-(2,2-dimethylpropyl)-10-methoxy-9-(2,2,2-trifluoroethoxy)-1H,2H,3H,4H,6H,7H,11bH-pyrido[2,1-a]isoquinolin-2-ol]",6.77
11,"COc1cc2c(cc1OC(C)C(F)(F)F)CCN1C[C@@H](CC(C)(C)C)[C@H](O)C[C@H]21 (stereo partly drawn) [Compound 4-39, (2R,3R,11bR)-3-(2,2-dimethylpropyl)-10-methoxy-9-[(1,1,1-trifluoropropan-2-yl)oxy]-1H,2H,3H,4H,6H,7H,11bH-pyrido[2,1-a]isoquinolin-2-ol]",7.92
